Reference: US12258355B2, “Probes for imaging huntingtin protein” (CHDI Foundation, Inc., priority 2014, dated 2025)

These compounds were tested against T1, Q46 protein aggregates (Homo sapiens, UniProt P42858) (assay: Q46 radioligand binding assay (RBA)). Details: 10 nM ligand [3H3]MK-3328.
T1 construct: fused on or other part: GST at the N-terminus, cut off with thrombin before the test to start aggregation; The wells held aggregated Q46 without GST
Summary of the method: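 Aggregates from thrombin-cleaved GST-Q46 (16 h, 37° C) at 5 μM monomer-equivalent were pre-incubated 20 min at room temperature with compound (1 μM to 30 pM) in 150 mM NaCl, 50 mM Tris pH 8.0, then 60 min at 37° C with 10 nM [^3H3]MK-3328. Bound radioactivity was filtered and counted; IC50 came from a four-parameter global fit normalized to vehicle and 3 μM unlabelled MK-3328.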

T1 sequence (P42858 with tags, fused parts or gaps with the stated changes, form open): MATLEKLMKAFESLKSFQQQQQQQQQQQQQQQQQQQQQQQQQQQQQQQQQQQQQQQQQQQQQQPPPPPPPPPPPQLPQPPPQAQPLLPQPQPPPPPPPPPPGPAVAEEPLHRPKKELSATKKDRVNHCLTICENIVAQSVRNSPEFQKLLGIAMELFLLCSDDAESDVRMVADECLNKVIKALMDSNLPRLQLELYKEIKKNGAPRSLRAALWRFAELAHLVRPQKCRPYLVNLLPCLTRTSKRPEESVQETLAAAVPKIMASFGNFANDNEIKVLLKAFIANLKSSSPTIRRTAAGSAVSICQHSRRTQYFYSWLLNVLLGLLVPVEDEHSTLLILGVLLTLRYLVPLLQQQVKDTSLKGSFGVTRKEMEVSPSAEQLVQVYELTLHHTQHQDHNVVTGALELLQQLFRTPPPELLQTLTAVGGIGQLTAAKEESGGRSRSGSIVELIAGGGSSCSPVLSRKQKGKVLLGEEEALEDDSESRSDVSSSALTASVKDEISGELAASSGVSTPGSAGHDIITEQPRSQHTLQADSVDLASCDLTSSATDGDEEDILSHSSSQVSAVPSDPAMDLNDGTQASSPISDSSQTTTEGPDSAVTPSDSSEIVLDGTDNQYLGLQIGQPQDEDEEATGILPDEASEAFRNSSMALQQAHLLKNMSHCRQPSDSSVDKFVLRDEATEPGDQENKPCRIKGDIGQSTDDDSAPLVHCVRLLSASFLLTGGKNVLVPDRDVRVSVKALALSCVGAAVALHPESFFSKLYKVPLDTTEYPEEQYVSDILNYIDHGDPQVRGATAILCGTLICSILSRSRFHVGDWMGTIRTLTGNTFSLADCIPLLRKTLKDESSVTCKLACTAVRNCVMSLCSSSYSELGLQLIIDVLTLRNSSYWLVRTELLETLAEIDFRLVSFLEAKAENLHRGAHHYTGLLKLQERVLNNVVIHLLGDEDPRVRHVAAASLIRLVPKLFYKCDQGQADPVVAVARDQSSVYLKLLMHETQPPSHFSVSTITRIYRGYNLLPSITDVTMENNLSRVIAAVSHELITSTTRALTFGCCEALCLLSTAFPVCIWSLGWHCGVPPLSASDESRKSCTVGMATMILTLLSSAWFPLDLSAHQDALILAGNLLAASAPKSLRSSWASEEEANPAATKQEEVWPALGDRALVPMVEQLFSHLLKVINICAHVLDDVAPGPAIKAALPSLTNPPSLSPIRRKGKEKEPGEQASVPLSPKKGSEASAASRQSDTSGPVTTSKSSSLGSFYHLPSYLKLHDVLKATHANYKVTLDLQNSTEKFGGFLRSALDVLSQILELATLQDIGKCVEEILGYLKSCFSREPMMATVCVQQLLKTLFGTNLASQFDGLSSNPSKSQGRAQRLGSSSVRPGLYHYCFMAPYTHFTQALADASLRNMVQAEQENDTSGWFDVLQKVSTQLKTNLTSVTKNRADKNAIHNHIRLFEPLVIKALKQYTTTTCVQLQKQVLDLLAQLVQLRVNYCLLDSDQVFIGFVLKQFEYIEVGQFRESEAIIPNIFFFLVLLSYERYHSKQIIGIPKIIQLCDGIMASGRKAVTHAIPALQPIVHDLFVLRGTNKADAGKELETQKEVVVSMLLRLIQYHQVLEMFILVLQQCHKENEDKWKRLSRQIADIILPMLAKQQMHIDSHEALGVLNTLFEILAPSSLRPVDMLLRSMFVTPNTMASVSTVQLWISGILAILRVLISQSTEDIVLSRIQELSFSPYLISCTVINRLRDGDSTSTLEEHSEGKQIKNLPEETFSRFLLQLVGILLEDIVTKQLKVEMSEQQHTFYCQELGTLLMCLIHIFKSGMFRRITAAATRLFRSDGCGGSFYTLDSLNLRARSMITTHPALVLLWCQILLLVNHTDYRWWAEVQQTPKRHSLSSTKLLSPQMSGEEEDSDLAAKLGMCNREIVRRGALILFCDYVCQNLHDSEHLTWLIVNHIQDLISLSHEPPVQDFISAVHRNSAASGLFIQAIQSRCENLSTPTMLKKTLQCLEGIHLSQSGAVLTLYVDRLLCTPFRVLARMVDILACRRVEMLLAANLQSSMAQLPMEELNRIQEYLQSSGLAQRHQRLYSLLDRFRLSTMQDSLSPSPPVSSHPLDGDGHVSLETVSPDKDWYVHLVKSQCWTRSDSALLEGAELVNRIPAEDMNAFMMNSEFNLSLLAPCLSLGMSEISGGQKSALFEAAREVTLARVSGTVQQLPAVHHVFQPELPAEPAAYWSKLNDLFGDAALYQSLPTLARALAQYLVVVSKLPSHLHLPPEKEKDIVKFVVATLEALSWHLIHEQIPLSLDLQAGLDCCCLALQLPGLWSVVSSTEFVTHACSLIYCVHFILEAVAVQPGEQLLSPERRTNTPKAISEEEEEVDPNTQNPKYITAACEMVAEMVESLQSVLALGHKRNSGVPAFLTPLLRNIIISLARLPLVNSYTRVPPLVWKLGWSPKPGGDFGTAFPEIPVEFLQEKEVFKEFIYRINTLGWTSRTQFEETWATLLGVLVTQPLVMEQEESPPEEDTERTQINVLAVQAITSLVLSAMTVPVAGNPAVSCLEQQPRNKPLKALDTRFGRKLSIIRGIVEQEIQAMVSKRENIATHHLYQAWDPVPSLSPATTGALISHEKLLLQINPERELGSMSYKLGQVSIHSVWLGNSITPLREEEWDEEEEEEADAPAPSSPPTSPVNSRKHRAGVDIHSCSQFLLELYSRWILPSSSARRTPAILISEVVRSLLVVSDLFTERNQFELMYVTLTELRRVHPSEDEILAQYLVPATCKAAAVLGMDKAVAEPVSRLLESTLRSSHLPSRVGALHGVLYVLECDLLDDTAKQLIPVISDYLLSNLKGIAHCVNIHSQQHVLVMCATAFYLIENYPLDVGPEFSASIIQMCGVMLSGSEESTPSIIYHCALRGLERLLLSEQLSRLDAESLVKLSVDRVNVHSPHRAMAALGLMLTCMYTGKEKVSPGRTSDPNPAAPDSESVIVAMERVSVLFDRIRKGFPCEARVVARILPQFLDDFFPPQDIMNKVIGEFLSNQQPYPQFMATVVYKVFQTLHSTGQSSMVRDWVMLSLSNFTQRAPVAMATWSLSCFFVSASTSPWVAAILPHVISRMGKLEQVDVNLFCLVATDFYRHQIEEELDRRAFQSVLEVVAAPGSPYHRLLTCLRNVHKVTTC

IC50 [nM]	SMILES
< 100	COc1cncc(C(=O)Nc2ccc3oc(-c4ccc(=O)n(C)n4)nc3c2)c1 [5-methoxy-N-[2-(1-methyl-6-oxo-1,6-dihydropyridazin-3-yl)-1,3-benzoxazol-5-yl]pyridine-3-carboxamide]
< 100	O=C(Nc1ccc2oc(-c3cccnc3)nc2c1)OCc1ccc(O)cn1 [(5-hydroxypyridin-2-yl)methyl N-[2-(pyridin-3-yl)-1,3-benzoxazol-5-yl]carbamate]
< 100	COc1ccc(/C=C/c2nc3cc(OCc4ccc(OC)cn4)ccc3o2)cc1 [2-[(E)-2-(4-methoxyphenyl)ethenyl]-5-[(5-methoxypyridin-2-yl)methoxy]-1,3-benzoxazole]
< 100	N#Cc1cnccc1-c1cc2cc(OCC3=CSC4=NCCN34)ccc2o1 [4-(5-{5H,6H-imidazo[2,1-b][1,3]thiazol-3-ylmethoxy}-1-benzofuran-2-yl)pyridine-3-carbonitrile]
< 100	CN(C)CCn1cc(COc2ccc3oc(-c4ccncc4C#N)cc3c2)cn1 [4-[5-({1-[2-(dimethylamino)ethyl]-1H-pyrazol-4-yl}methoxy)-1-benzofuran-2-yl]pyridine-3-carbonitrile]
< 100	O=C(Nc1ccc2oc(-c3cccnc3)nc2c1)c1nnc(-c2ccccc2)o1
< 100	COc1ccc(COC(=O)Nc2ccc3oc(-c4cccnc4)nc3c2)nc1 [(5-methoxypyridin-2-yl)methyl N-[2-(pyridin-3-yl)-1,3-benzoxazol-5-yl]carbamate]
100 to 500	c1ccc(COc2ccc3oc(-c4cccnc4)nc3c2)nc1 [5-(pyridin-2-ylmethoxy)-2-(pyridin-3-yl)-1,3-benzoxazole]
< 100	Cn1cc(COc2ccc3oc(-c4ccncc4C#N)cc3c2)cn1 [4-{5-[(1-methyl-1H-pyrazol-4-yl)methoxy]-1-benzofuran-2-yl}pyridine-3-carbonitrile]
< 100	COc1ccc(-c2nc3cc(NC(=O)c4ccccc4OC)ccc3o2)cc1 [2-methoxy-N-[2-(4-methoxyphenyl)-1,3-benzoxazol-5-yl]benzamide]
< 100	COc1ccc(COc2ccc3oc(-n4ccnc4)nc3c2)nc1 [2-(1H-imidazol-1-yl)-5-[(5-methoxypyridin-2-yl)methoxy]-1,3-benzoxazole]
< 100	CSc1ccc(C(=O)Nc2ccc3oc(-c4cccnc4)nc3c2)cc1 [4-(methylsulfanyl)-N-[2-(pyridin-3-yl)-1,3-benzoxazol-5-yl]benzamide]
< 100	COc1ccc(COc2cnc3oc(-c4cccnc4)nc3c2)nc1 [3-{6-[(5-methoxypyridin-2-yl)methoxy]-[1,3]oxazolo[5,4-b]pyridin-2-yl}pyridine]
100 to 500	O=c1cnc(COc2ccc3oc(-c4cccnc4)nc3c2)c[nH]1 [5-({[2-(pyridin-3-yl)-1,3-benzoxazol-5-yl]oxy}methyl)-1,2-dihydropyrazin-2-one]
< 100	Cn1nc(-c2nc3cc(OCc4ccc(O)cn4)ccc3o2)ccc1=O [6-{5-[(5-hydroxypyridin-2-yl)methoxy]-1,3-benzoxazol-2-yl}-2-methyl-2,3-dihydropyridazin-3-one]
< 100	COc1cnc(COc2ccc3[nH]c(-c4cccnc4)nc3c2)cn1 [5-[(5-methoxypyrazin-2-yl)methoxy]-2-(pyridin-3-yl)-1H-1,3-benzodiazole]
< 100	COc1cnc(COc2cnc3oc(-c4cnn(C)c4)nc3c2)cn1 [2-methoxy-5-({[2-(1-methyl-1H-pyrazol-4-yl)-[1,3]oxazolo[5,4-b]pyridin-6-yl]oxy}methyl)pyrazine]
< 100	c1cncc(COc2ccc3nc(-c4cccnc4)oc3c2)c1 [2-(pyridin-3-yl)-6-(pyridin-3-ylmethoxy)-1,3-benzoxazole]
< 100	Brc1ccc(COc2ccc3oc(-c4cccnc4)nc3c2)nc1 [5-[(5-bromopyridin-2-yl)methoxy]-2-(pyridin-3-yl)-1,3-benzoxazole]
< 100	COc1ccc(COc2ccc3oc(-c4ccc(=O)[nH]c4)nc3c2)nc1 [5-{5-[(5-methoxypyridin-2-yl)methoxy]-1,3-benzoxazol-2-yl}-1,2-dihydropyridin-2-one]
> 50	COc1ccc(COc2ccc3oc(N4CCNCC4)nc3c2)nc1 [5-[(5-methoxypyridin-2-yl)methoxy]-2-(piperazin-1-yl)-1,3-benzoxazole]
100 to 500	COc1ccc(COc2ccc3oc(C4CCN(C)CC4)nc3c2)nc1 [5-[(5-methoxypyridin-2-yl)methoxy]-2-(1-methylpiperidin-4-yl)-1,3-benzoxazole]
100 to 500	CC(C)(C)OC(=O)N1CCN(c2ccc3oc(-c4cccnc4)nc3c2)CC1 [tert-butyl 4-[2-(pyridin-3-yl)-1,3-benzoxazol-5-yl]piperazine-1-carboxylate]
< 100	N#Cc1ccncc1-c1cc2cc(OCc3cccnc3)ccc2o1 [3-[5-(pyridin-3-ylmethoxy)-1-benzofuran-2-yl]pyridine-4-carbonitrile]

IC50 [nM]	SMILES
< 100	Brc1ccc(COc2cnc3oc(-c4cccnc4)nc3c2)nc1 [3-{6-[(5-bromopyridin-2-yl)methoxy]-[1,3]oxazolo[5,4-b]pyridin-2-yl}pyridine]
100 to 500	COc1ccc(-c2ccc3oc(-c4cccnc4)nc3c2)nc1 [5-(5-methoxypyridin-2-yl)-2-(pyridin-3-yl)-1,3-benzoxazole]
< 100	COc1ccnc(COc2cnc3oc(-c4cccnc4)nc3c2)c1 [4-methoxy-2-({[2-(pyridin-3-yl)-[1,3]oxazolo[5,4-b]pyridin-6-yl]oxy}methyl)pyridine]
< 100	CN(C)CCCOc1ccc(COc2ccc3oc(-c4cccnc4)nc3c2)cc1 [dimethyl({3-[4-({[2-(pyridin-3-yl)-1,3-benzoxazol-5-yl]oxy}methyl)phenoxy]propyl})amine]
< 100	COc1ccc(COc2ccc3oc(-c4cccnc4)nc3c2)cc1 [5-[(4-methoxyphenyl)methoxy]-2-(pyridin-3-yl)-1,3-benzoxazole]
< 100	Cn1cc(-c2ccc(COc3cnc4oc(-c5cccnc5)nc4c3)nc2)cn1 [5-(1-methyl-1H-pyrazol-4-yl)-2-({[2-(pyridin-3-yl)-[1,3]oxazolo[5,4-b]pyridin-6-yl]oxy}methyl)pyridine]
100 to 500	COc1ccc(Nc2ccc3oc(-c4cccnc4)nc3c2)cc1 [N-(4-methoxyphenyl)-2-(pyridin-3-yl)-1,3-benzoxazol-5-amine]
< 100	O=C(Nc1ccc2oc(-c3cccnc3)nc2c1)c1cccnc1Oc1ccccc1 [2-phenoxy-N-[2-(pyridin-3-yl)-1,3-benzoxazol-5-yl]pyridine-3-carboxamide]
< 100	COc1ccc(-c2ccc3oc(-c4cccnc4)nc3c2)cc1 [5-(4-methoxyphenyl)-2-(pyridin-3-yl)-1,3-benzoxazole]
< 100	c1cnc(Nc2ccc3oc(-c4cccnc4)nc3c2)nc1 [2-(pyridin-3-yl)-N-(pyrimidin-2-yl)-1,3-benzoxazol-5-amine]
< 100	Cn1nc(-c2nc3cc(OCc4ccc(OCCF)cn4)cnc3o2)ccc1=O [6-(6-{[5-(2-fluoroethoxy)pyridin-2-yl]methoxy}-[1,3]oxazolo[5,4-b]pyridin-2-yl)-2-methyl-2,3-dihydropyridazin-3-one]
< 100	Cn1nc(C(=O)Nc2ccc3oc(-c4ccc(=O)n(C)n4)nc3c2)ccc1=O [1-methyl-N-[2-(1-methyl-6-oxo-1,6-dihydropyridazin-3-yl)-1,3-benzoxazol-5-yl]-6-oxo-1,6-dihydropyridazine-3-carboxamide]
< 100	COc1cccc(COc2ccc3oc(-c4cccnc4)nc3c2)c1 [5-[(3-methoxyphenyl)methoxy]-2-(pyridin-3-yl)-1,3-benzoxazole]
< 100	COc1cncc(NC(=O)c2ccc3oc(-c4cccnc4)nc3c2)c1 [N-(5-methoxypyridin-3-yl)-2-(pyridin-3-yl)-1,3-benzoxazole-5-carboxamide]
< 100	O=C(Nc1ccc2oc(-c3cccnc3)nc2c1)c1ccc2nccnc2c1 [N-[2-(pyridin-3-yl)-1,3-benzoxazol-5-yl]quinoxaline-6-carboxamide]
< 100	COc1cncc(COc2cnc3oc(-c4cccnc4)nc3c2)c1 [3-methoxy-5-({[2-(pyridin-3-yl)-[1,3]oxazolo[5,4-b]pyridin-6-yl]oxy}methyl)pyridine]
< 100	Cn1cnc(COc2ccc3oc(-c4ccncc4C#N)cc3c2)c1 [4-{5-[(1-methyl-1H-imidazol-4-yl)methoxy]-1-benzofuran-2-yl}pyridine-3-carbonitrile]
100 to 500	CNCc1ccc(COc2ccc3oc(-c4cccnc4)nc3c2)cc1 [methyl({[4-({[2-(pyridin-3-yl)-1,3-benzoxazol-5-yl]oxy}methyl)phenyl]methyl})amine]
< 100	COc1ccc(COc2cnc3oc(-c4cnccn4)nc3c2)nc1 [2-{6-[(5-methoxypyridin-2-yl)methoxy]-[1,3]oxazolo[5,4-b]pyridin-2-yl]pyrazine]
< 100	Cc1cncc(C(=O)Nc2ccc3oc(-c4cccnc4)nc3c2)c1 [5-methyl-N-[2-(pyridin-3-yl)-1,3-benzoxazol-5-yl]pyridine-3-carboxatmide]
100 to 500	COc1ncc(-c2ccc3oc(-c4cccnc4)nc3c2)cn1 [5-(2-methoxypyrimidin-5-yl)-2-(pyridin-3-yl)-1,3-benzoxazole]
< 100	COc1ccc(COc2ccc3oc(-c4ccc(NC(C)=O)nc4)nc3c2)nc1 [N-(5-{5-[(5-methoxypyridin-2-yl)methoxy]-1,3-benzoxazol-2-yl}pyridin-2-yl)acetamide]
< 100	COc1cnc(COc2cnc3oc(-c4cccnc4)nc3c2)nc1 [5-methoxy-2-({[2-(pyridin-3-yl)-[1,3]oxazolo[5,4-b]pyridin-6-yl]oxy}methyl)pyrimidine]
< 100	COc1ccc(/C=C/C(=O)Nc2ccc3oc(-c4cccnc4)nc3c2)cc1 [(2E)-3-(4-methoxyphenyl)-N-[2-(pyridin-3-yl)-1,3-benzoxazol-5-yl]prop-2-enamide]
